From publication PMC5384001 (Scientific Reports, 2017)
Numbering of substitutions follows the chain as printed. Values joined by “and” are separate entries in the source; they are usually repeats but may differ in a detail not shown here. Equal entries are not always repeated.

Legend:
[1] = target: T1, GluD2-Lc (Rattus norvegicus, UniProt Q63226, A654T); assay: Two-electrode voltage clamp in Xenopus oocytes, inhibition of spontaneous currents; assay type: cell-based
T1 construct: the function of full-length receptors as well, we introduced them into the GluD2 lurcher mutant (GluD2-Lc); expressed in transfected cells; host or cells: Xenopus laevis oocytes injected with cRNA
T1 sequence (Q63226 24-1007 A654T): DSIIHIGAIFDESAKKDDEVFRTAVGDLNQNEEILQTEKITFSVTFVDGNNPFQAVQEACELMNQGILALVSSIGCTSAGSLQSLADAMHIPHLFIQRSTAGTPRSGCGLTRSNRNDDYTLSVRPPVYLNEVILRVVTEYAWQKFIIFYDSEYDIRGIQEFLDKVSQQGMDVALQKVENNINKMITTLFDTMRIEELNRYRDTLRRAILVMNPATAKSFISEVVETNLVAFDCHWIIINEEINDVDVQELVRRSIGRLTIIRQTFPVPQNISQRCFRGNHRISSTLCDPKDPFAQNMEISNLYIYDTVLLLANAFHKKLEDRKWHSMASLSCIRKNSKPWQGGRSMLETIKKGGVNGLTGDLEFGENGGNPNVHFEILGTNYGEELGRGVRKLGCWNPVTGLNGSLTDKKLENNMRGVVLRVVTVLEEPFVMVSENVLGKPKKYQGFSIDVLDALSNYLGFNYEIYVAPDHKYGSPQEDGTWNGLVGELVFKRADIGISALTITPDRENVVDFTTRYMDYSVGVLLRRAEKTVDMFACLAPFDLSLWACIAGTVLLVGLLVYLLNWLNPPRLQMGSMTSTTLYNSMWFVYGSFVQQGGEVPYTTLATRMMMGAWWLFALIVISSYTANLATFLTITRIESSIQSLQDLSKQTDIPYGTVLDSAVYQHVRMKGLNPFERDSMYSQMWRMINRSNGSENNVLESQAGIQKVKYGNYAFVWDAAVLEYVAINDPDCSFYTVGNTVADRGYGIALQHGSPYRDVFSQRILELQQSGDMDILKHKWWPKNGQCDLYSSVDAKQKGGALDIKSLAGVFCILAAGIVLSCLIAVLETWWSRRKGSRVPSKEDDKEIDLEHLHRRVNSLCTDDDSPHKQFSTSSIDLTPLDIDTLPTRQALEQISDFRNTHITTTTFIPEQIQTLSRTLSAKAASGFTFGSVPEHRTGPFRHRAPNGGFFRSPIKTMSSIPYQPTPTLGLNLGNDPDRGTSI
Description: (§1) All cDNAs for expression in Xenopus oocytes were cloned into the vector pSGEM[30]. Point mutants of GluD2-Lc were constructed by overlap extension PCR with mutagenic oligonucleotide primers. The GluD2-Lc-(H)GluN1 chimera was constructed by transferring the S1- and S2-encoding sequences from GluD2-LBD-(H)GluN1 to GluD2-Lc via overlap extension PCR using tail primers. The S1 and S2 sequences were transferred separately, yielding GluD2-Lc-(HS1)GluN1 and GluD2-Lc-(HS2)GluN1 constructs. GluD2-Lc-(H)GluN1 was then produced from these by another overlap extension PCR. Complementary RNA (cRNA) for injection into oocytes was synthesised from 1 μg of linearised template DNA with the mMESSAGE mMACHINE in vitro transcription kit (Ambion, Austin, TX, USA).
(§2) Oocytes were obtained by surgically removing parts of the ovaries from Xenopus laevis (Nasco, Fort Atkinson, WI, USA) anaesthetised with 1.5 g/L 3-aminobenzoic acid ethylester (Sigma, Taufkirchen, Germany). […] Oocytes were injected with 11 ng cRNA (10 ng of each cRNA for co-expression of GluN1 and GluN2A) using a nanoliter injector (WPI, Sarasota, FL, USA). Four days after cRNA injection, current responses were recorded under voltage clamp at –70 mV with a Turbo Tec-10CD amplifier (npi electronic, Tamm, Germany) controlled by Patchmaster software (HEKA, Lambrecht, Germany). Currents were filtered with a 20 Hz low-pass filter and then digitised with a sampling rate of 50 Hz. Recording electrodes were pulled from borosilicate glass (Hilgenberg, Malsfeld, Germany) with an L/M-3P-A vertical pipette puller (List-Medical), filled with 3 M KCl, and had resistances of 0.5–5 MΩ (voltage electrode) or 0.5–1.5 MΩ (current electrode). Recordings were performed in a 50 μL chamber under constant superfusion with extracellular solution at a flow rate of 3–5 mL/min. […] Finally, Ba-NFR and then NMDGR were applied again to check for reversibility.

[2] = target: T2, GluD2-Lc-(HS1)GluN1 (Rattus norvegicus, UniProt Q63226, A654T/D542Y/S544G/Y543Q); assay: as above; assay type: cell-based; settings: fraction of spontaneous current inhibited by saturating D-serine
T2 construct: the function of full-length receptors as well, we introduced them into the GluD2 lurcher mutant (GluD2-Lc); expressed in transfected cells; host or cells: Xenopus laevis oocytes injected with cRNA
T2 sequence (Q63226 24-1007 D542Y/Y543Q/S544G/A654T): T1 sequence (Q63226 24-1007 A654T) with D519Y, Y520Q, S521G
Description: as §1, §2

With N[C@H](CO)C(=O)O [D-serine] the “D-serine efficacy Mean ± SEM” value ([1]; fraction of spontaneous current inhibited by saturating D-serine) was 46% and 46.2 ± 1.9%, the “maximal, absolute, D-serine-induced steady-state inhibition of spontaneous currents” value ([1]; n = 20) was 222 ± 36 nA and the “D-serine efficacy Mean ± SEM” value [2] was 29% and 29.1 ± 1.1%.
